Laboratory results reported in patent US20160077077A1, “Zinc Fluorescent Probe” (The Procter & Gamble Company, priority 2014, published 2016).

Key:
[1] = Assessing Zn chelation effectiveness (R3 fluorescence with various zinc compounds)
Method: Another application of the composition of the present invention is assessing the effectiveness of a zinc chelator or a zinc chelating system. One aspect of the invention provides a method of assessing the Zn^2+ chelating effectiveness of Zn^2+ chelator or a Zn^2+ chelating system comprising the steps: (a) incubating the Zn^2+ chelator or a Zn^2+ chelating system with a compound of the present invention; (b) shining excitation light to the incubated Zn^2+ chelator or a Zn^2+ chelating system; and (c) detecting light emission from the compound from 560 nm to 660 nm.
There are at least three variables that may affect zinc chelation. Firstly, the inherent characteristic of any particularly zinc chelator compound. Such compounds include lactate, sulfate, nitrate, chloride, citrate, anions, and the like. Mechanism of actions may include ionic interaction (as in a salt) or covalent binding. Another variable is the concentration of one or more zinc chelators in a zinc chelating system. Generally, the more of a zinc chelator the more zinc chelation is observed. […]
Table 2 is the fluorescent relative intensity of inventive Compound R3 (5.0×10^−5 M) upon the addition of various zinc compounds. Each sample contains the same level of zinc ion (5.0×10^−4 M) in H2O/DMSO (1000:1, V/V) solution, with fluorescence assessed at an excitation of 560 nm.

[2] = Metal ion sensing (fluorescence response of Compound R3 to Hg^2+); settings: excitation 560 nm
Method: (§1) The procedure for metal ion sensing is described. Solutions of the metal ions (10.0 mM) are prepared in deionized water. […] For titration experiments, a 2.0 mL solution of Compound R3 (20 μM) is filled in a quartz optical cell of 1 cm optical path length. Zn^2+ stock solution is added into the quartz optical cell gradually by micro-pipette. Spectral data is recorded at 5 min after addition. In selectivity experiments, test samples are prepared by placing appropriate amounts of metal ion stock into 2.0 mL solution of R3 (20 μM). For fluorescence measurements, excitation is provided at 560 nm, while emission is collected from 565 nm to 700 nm.

[3] = Metal ion sensing (fluorescence response of Compound R3 to Zn^2+)
Method: The procedure for metal ion sensing is described. Solutions of the metal ions (10.0 mM) are prepared in deionized water. A stock solutions of Compound R3 (0.2 mM) is prepared in ethanol and then diluted to 20 μM with ethanol-water (1: 1, v/v, pH 7.04) for spectral measurement. For titration experiments, a 2.0 mL solution of Compound R3 (20 μM) is filled in a quartz optical cell of 1 cm optical path length. Zn^2+ stock solution is added into the quartz optical cell gradually by micro-pipette. Spectral data is recorded at 5 min after addition. In selectivity experiments, test samples are prepared by placing appropriate amounts of metal ion stock into 2.0 mL solution of R3 (20 μM). For fluorescence measurements, excitation is provided at 560 nm, while emission is collected from 565 nm to 700 nm.

[4] = system: Streptococcus mutans (ATCC® 700610™); assay: Fluorescence imaging of Zn^2+ in bacteria (CLSM); type: cell-based; settings: λex 543 nm
Method: The Streptococcus mutans is prepared by inoculating the single colony from the BHI agar plate into 5 mL BHI broth and incubating at 37° C. for 48 hours. The Streptococcus mutans are separately stained with 10 μM of Compound R3 at 37° C. for 60 min.
FIG. 2a 2f are CLSM images of Streptococcus mutans (ATCC® 700610™) cells. FIGS. 2a, 2b, and 2c are said cells incubated with 10 μM of inventive Compound R3 for 60 min to assess base level background fluorescence noise. FIGS. 2d, 2e, and 2f are cells from the same sample pool subsequently incubated with 50 μM Zn^2+ for 60 min. And then red channel emission is collected at 560-660 nm for FIGS. 2b and 2e (λex=543 nm), while FIGS. 2a and 2d are bright-field images. FIG. 2c is an overlay of FIG. 2a and FIG. 2b, while FIG. 2f is an overlap of FIG. 2d and FIG. 2e.

[5] = Metal ion sensing (fluorescence response of Compound R3 to other metal ions); settings: excitation 560 nm
Method: as §1

[6] = Metal ion sensing (fluorescence response of Compound R3 to Ca^2+); settings: Compound R3 2.0 × 10^−5M + Ca^2+ 20.0 × 10^−5M, ethanol-PBS (1:1, v/v, pH 8.04), excitation 560 nm
Method: as §1

[7] = system: HeLa cells; assay: Fluorescence imaging of intracellular Zn^2+ (CLSM); type: cell-based; settings: λex 543 nm, emission 560-660 nm
Method: Confocal fluorescence imaging is performed with an OLYMPUS IX81 laser scanning microscope and a 60 ×oil-immersion objective lens. The microscope is equipped with multiple visible laser lines (405, 488, 543 nm). Images are collected and processed with Olympus FV10-ASW software.
The HeLa cell line is provided by Biochemistry and Cell Biology (China). Cells are grown in DMEM (Dulbecco's modified Eagle's medium) supplemented with 10% FBS (Fetal Bovine serum) and 5% CO2 at 37° C.
HeLa cells ([…]) are plated on […] glass cover slips and allowed to adhere for 24 hours. 10 μM of Compound R3 in the culture media containing 0.2% (v/v) DMSO is added to the cells. The cells are incubated at 37° C. for 30 min, and washed with PBS three times to remove the excess R3 probe and bathed in PBS (2 mL) before imaging. After washing with PBS (2 mL×3) to remove the excess probe, the cells are treated with 50 μM Zinc lactate for 30 min. Excitation of Compound R3 loaded cells at 543 nm is carried out with a semiconductor laser, and emission is collected at 560-660 nm (single channel).

Compound | Relative degree of zinc chelation effectiveness ([1]; among the zinc chelators tested (lactate, sulfate, citrate), from Table 2) | Fluorescence intensity in presence of Hg^2+ (selectivity) ([2]; Compound R3 20 μM, ethanol-water (1:1, v/v, pH 7.04)) | Peak Fluorescence Intensity (a.u.) at 570-580 nm ([2]; Compound R3 2.0 × 10^−5M + Hg^2+ 20.0 × 10^−5M, ethanol-PBS (1:1, v/v, pH 8.04)) [a.u.] | Fluorescence of the solution without metal ion ([3]; Compound R3 20 μM in control ethanol-water (1:1, v/v, pH 7.04), no Zn^2+) | Fluorescence at 580 nm on addition of Zn^2+ ([3]; Compound R3 20 μM, ethanol-water (1:1, v/v, pH 7.04), Zn^2+ 0-12 eq, excitation 560 nm) | Fluorescence intensity in presence of Zn^2+ (selectivity) ([3]; Compound R3 20 μM, ethanol-water (1:1, v/v, pH 7.04), excitation 560 nm) | Peak Fluorescence Intensity (a.u.) at 570-580 nm ([3]; Compound R3 2.0 × 10^−5M + Zn^2+ 20.0 × 10^−5M, ethanol-PBS (1:1, v/v, pH 8.04), excitation 560 nm) [a.u.] | Fluorescence in Streptococcus mutans after Zn^2+ ([4]; 10 μM Compound R3 60 min at 37° C., then 50 μM Zn^2+ 60 min, emission 560-660 nm (FIG. 2e)) | Fluorescence emission in Streptococcus mutans without Zn^2+ ([4]; 10 μM Compound R3, 60 min, 37° C., emission 560-660 nm, no Zn^2+ (FIG. 2b)) | Fluorescence intensity in presence of other transition and heavy metal ions (selectivity) ([5]; Compound R3 20 μM, ethanol-water (1:1, v/v, pH 7.04), K^+, Ag^+, Ca^2+, Mg^2+, Pb^2+, Ni^2+, Mn^2+, Co^2+, Cd^2+, Cu^2+, Fe^2+, Cr^3+, Li^+, Ba^2+, Fe^3+, Na^+) | Peak Fluorescence Intensity (a.u.) at 570-580 nm ([5]; Compound R3 2.0 × 10^−5M + other metal ions (K^+, Ag^+, Ca^2+, Mg^2+, Pb^2+, Ni^2+, Mn^2+, Co^2+, Cd^2+, Cu^2+, Fe^2+, Cr^3+, Li^+, Ba^2+, Fe^3+, Na^+) 20.0 × 10^−5M, ethanol-PBS (1:1, v/v, pH 8.04)) [a.u.] | Peak Fluorescence Intensity (a.u.) at 570-580 nm [6] [a.u.] | Intracellular fluorescence in HeLa cells after Zn^2+ ([7]; 10 μM Compound R3 30 min at 37° C., then 50 μM Zn^2+ 30 min) | Fluorescence emission in HeLa cells without Zn^2+ ([7]; 10 μM Compound R3, 30 min, 37° C., no Zn^2+ (FIG. 1b)) | Peak Fluorescence Intensity (a.u.) at 570-580 nm ([1]; Compound R3 5.0×10^−5 M only (control, no zinc), H2O/DMSO (1000:1, V/V), excitation 560 nm) [a.u.]
CC(O)C(=O)[O-].CC(O)C(=O)[O-].[Zn+2] (stereo not drawn) [zinc lactate, reference compound] | weakest relative degree of zinc chelation effectiveness |  |  |  |  |  |  |  |  |  |  |  |  |  | 
CCN(CC)c1ccc2c(c1)Oc1cc(N(CC)CC)ccc1C21c2ccccc2C(=O)N1CCNCc1ccc[nH]1 [Compound R3, 2-(2-(((1H-pyrrol-2-yl)methyl)amino)ethyl)-3′,6′-bis(diethylamino)spiro[isoindoline-1,9′-xanthen]-3-one] |  | greatest fluorescence intensity | 1.0 | non fluorescent | turned on and grew drastically | greatest fluorescence intensity | 0.7 | significant fluorescence increase | no fluorescence emission | minimal fluorescence intensity | <0.1 | 0.25 | significant fluorescence increase | no fluorescence emission | 0.1
